From US20240252594A1, “COMBINATION THERAPY FOR NEURODEGENERATIVE DISEASES” (ALETA NEUROSCIENCE, LLC, priority 2021, published 2024)

Key:
Alzheimer's disease = conditions: cited from earlier work
IL-1B = test: LPS/ATP-induced neuroinflammation in microglia: IL-1B; type: cell-based, human; conditions: compared with […] distilled water in presence of LPS and ATP
[1] = system: TNF-α mediated neuroinflammation in microglial cells; test: LPS/ATP-induced neuroinflammation in microglia: TNF-α secretion (Luminex); type: cell-based, human; conditions: for TNF-α in supernatant, Mean ± S.D. / TNF-α in supernatant, Replicate 1 / TNF-α in supernatant, Replicate 2 / TNF-α in supernatant, Replicate 3: LPS (100 ng/mL) + ATP (5 mM), six hours after LPS; for Effect on TNF-α concentration (in words): compared with […] distilled water in presence of LPS and ATP
Excerpt: (§1) In addition to the studies discussed above assessing activity of combinations of drugs on MPP+-induced neurodegeneration toxicity on human dopaminergic neurons as well as on a human iPSC cell line harboring a triplication mutation in alpha-synuclein gene, and measuring neuronal growth, neurite branching and neurofilament heavy chain, we also assessed combinations of drugs in reducing lipopolysaccharide (LPS, from E. coli)-induced neuroinflammation in human microglia cells.
(§2) Lipopolysaccharides are important outer membrane components of gram-negative bacteria such as E. coli and Salmonella. They are large amphipathic glycoconjugates that typically consist of a lipid domain (hydrophobic) attached to a core oligosaccharide and a distal polysaccharide. LPS binds to Toll-like receptor 4 (TLR4) and activates microglia(98) which in turn increases secretion of pro-inflammatory cytokines such as interleukin-6 (IL-6), tumor necrosis factor-α (TNF-α), and CXCL1/GROα.
(§3) Microglia cells were obtained from an iCell® Microglia kit, 01279 (Catalogue N^o R1131) from FUJIFILM Cellular Dynamics. We followed the manufacturer's protocol for activation of the microglial cells with LPS/ATP to subsequently measure the effect of the study drugs on pro-inflammatory cytokines IL-6, TNF-α and CXCL1/GROα.
(§4) All cell culture procedures were performed in aseptic conditions, under a laminar flow hood. Microglia were thawed and cultured following the provider's instructions. The microglia were plated at 50,000 cells per well of a Corning Primaria 96 well plate (Ref N^o 353872) in 100 μL of growth medium. Cells were incubated at 37° C./5% CO2 in a humidified cell culture incubator.
(§5) Three days after cell plating, the test or reference substances (25 μL of solutions at 5×) were applied 1 hour before LPS and ATP stimulation.
(§6) One hour later, 12.5 μL of test or reference substances were added again at 2× concentrated followed by 12.5 μL of LPS at 12× concentration. Fifty microliters of ATP were introduced at 4× concentration, 5 h 30 min after incubation with LPS.
(§7) Six hours after LPS incubation, the supernatant of each well was collected and centrifugated at 1000 g for 10 minutes to remove the cells and debris.
(§8) Fifty microliters of supernatant from NT and LPS+ATP-treated wells were used to determine cytokine secretion (IL-6, TNF-α, CXCL1/GROα) by Luminex platform according to the provider's instructions. Samples were diluted prior to the assay to fit within the standard range if needed. Three wells were tested per each condition (Table 11). Cytokines levels in the supernatant were expressed in pg/mL. The data was analyzed using a One-Way ANOVA followed by Bonferroni test.

[2] = system: IL-6 mediated inflammation in microglial cells; test: LPS/ATP-induced neuroinflammation in microglia: IL-6 secretion (Luminex); type: cell-based, human; conditions: for IL-6 in supernatant, Mean ± S.D. / IL-6 in supernatant, Replicate 1 / IL-6 in supernatant, Replicate 2 / IL-6 in supernatant, Replicate 3: LPS (100 ng/mL) + ATP (5 mM), six hours after LPS; for Effect on IL-6 concentration (in words): compared with […] distilled water in presence of LPS and ATP
Excerpt: as §1, §2, §3, §4, §5, §6, §7, §8

[3] = system: CXCL1/GROα mediated neuroinflammation in microglial cells; test: LPS/ATP-induced neuroinflammation in microglia: CXCL1/GROα secretion (Luminex); type: cell-based, human; conditions: for CXCL1/GROα in supernatant, Mean ± S.D. / CXCL1/GROα in supernatant, Replicate 1 / CXCL1/GROα in supernatant, Replicate 2 / CXCL1/GROα in supernatant, Replicate 3: LPS (100 ng/mL) + ATP (5 mM), six hours after LPS
Excerpt: as §1, §2, §3, §4, §5, §6, §7, §8

[4] = system: human dopaminergic neurons (iCell DopaNeurons); test: MPP+-induced neurotoxicity: cytolysis of iCell DopaNeurons; type: cell-based; conditions: with MPP+ 100 μM
Experimental: Three different measurements were made in the experiments. Neurite length in mm was measured, which is a measure of increase in dendril length of neurons. […] Secondly, neurite branching was measured. […] Thirdly, cytolysis of the cells was measured. […] Experimental conditions were measured relative to the results of healthy cells in the studies.
(§9) Procedure. iCell DOPA neurons were thawed and cultured following the provider's instructions in Brainphys medium+provided supplements+1% N2 supplement (Stemcell Technologies)+penicillin/streptomycin+Laminin. They were plated at 20000 cells per well of a 384 well plate (pre-coated with poly-D-lysine and Laminin) in 70 μL of growth medium. Cells were incubated at 37° ° C./5% CO2 in a humidified cell culture incubator. Half of the culture medium was changed twice a week.
(§10) MPP+-induced neurotoxicity: 24 hours after neuronal plating, half of the medium was removed and the test compounds were applied with MPP+ treatment, both concentrated at 4×, were added to the wells. For each well, five aliquots were added, corresponding columns A-E in Table 3. In each row, either the compound indicated dissolved in its vehicle noted in Table 2 was added, or only a vehicle was added as indicated. Column E is an indicator of whether MPP+ was added. If not, only the medium was added.
(§11) For the evaluation of conditions 8, 10,12, 22, 24, Neurite outgrowth was followed for subsequent 48 hours using an Incucyte Zoom platform with one phase contrast image every 4 hours, using a 20× objective. After 48 hours, the medium containing test compounds and MPP+ was removed and replaced by fresh medium containing a fluorescent cytolysis marker (red fluorescence) and a live cell marker (green fluorescence). For the evaluation of conditions 10, 12, 24, 38, 40, 51-53, Neurite outgrowth was followed similarly for subsequent 72 hours after MPP+ was added.
Data was normalized to control conditions as there is basal cytolysis in the cell culture after thawing.

[5] = system: human dopaminergic neurons (iCell DopaNeurons); test: MPP+-induced neurotoxicity: neurite outgrowth (neurite length, branch points) on iCell DopaNeurons; type: cell-based; conditions: with MPP+ 100 μM, 72 hours
Excerpt: MPP+(1-methyl-4-phenylpyridinium) is a known neurotoxin which acts by interfering with oxidative phosphorylation in mitochondria by inhibiting complex I, a protein in the membrane of mitochondria in dopaminergic neurons in the substantia nigra.(94) The inhibition of mitochondrial function leads to the depletion of ATP and eventual cell death. MPP+ ultimately causes Parkinsonism in primates by killing certain dopamine-producing neurons in the substantia nigra.
iCell DOPA neurons are neural floor plate-derived midbrain dopaminergic neurons generated from human induced pluripotent stem cells (iPSCs). Dopaminergic neurons, specifically those located in the floor plate-derived midbrain are implicated in neurological disorders such as Parkinson's disease, MSA and DLBD among others. […] The iCellDopa neurons were supplied from FUJIFILM Cellular Dynamics.
as §9, §10, §11
Assay endpoints and data analysis. Phase contrast images were analyzed at each time point to determine the neurite length and number of branch points per mm^2. Kinetic data was plotted and kinetics were normalized by subtracting the value of the first data point (at time of treatment), allowing to measure changes in neurite outgrowth only from the onset of the treatment, starting at zero. Area Under Curve (AUC) of kinetic data was obtained and used for plotting compound's effects and perform statistical analyzes.

Structure (SMILES) | Effect on IL-1B concentration (in words) (IL-1B) | TNF-α in supernatant, Mean ± S.D. [1] [pg/mL] | TNF-α in supernatant, Replicate 1 [1] [pg/mL] | TNF-α in supernatant, Replicate 2 [1] [pg/mL] | TNF-α in supernatant, Replicate 3 [1] [pg/mL] | Effect on TNF-α concentration (in words) [1] | IL-6 in supernatant, Mean ± S.D. [2] [pg/mL] | IL-6 in supernatant, Replicate 1 [2] [pg/mL] | IL-6 in supernatant, Replicate 2 [2] [pg/mL] | IL-6 in supernatant, Replicate 3 [2] [pg/mL] | Effect on IL-6 concentration (in words) [2] | CXCL1/GROα in supernatant, Mean ± S.D. [3] [pg/mL] | CXCL1/GROα in supernatant, Replicate 1 [3] [pg/mL] | CXCL1/GROα in supernatant, Replicate 2 [3] [pg/mL] | CXCL1/GROα in supernatant, Replicate 3 [3] [pg/mL] | further results
Cc1cn(-c2cc(NC(=O)c3ccc(C)c(Nc4nccc(-c5cccnc5)n4)c3)cc(C(F)(F)F)c2)cn1 [nilotinib, Nilotinib] |  |  |  |  |  |  |  |  |  |  |  |  |  |  |  | Hippocampal volume loss attenuated (Alzheimer's disease; at 12 months): −27%; Safety (Alzheimer's disease; in vivo): safe
CC(C)(O)c1coc(S(=O)(=O)NC(=O)Nc2c3c(cc4c2CCC4)CCC3)c1 [MCC950] | significantly decreased | 30.95 ± 2.25 | 29.44 | 29.87 | 33.53 | significantly decreased | 256.48 ± 40.04 | 253.54 | 297.91 | 218.00 | significantly decreased | 469.39 ± 82.91 | 375.70 | 499.15 | 533.31 | 
CC(C)[C@H](NC(=O)c1ccc2ccccc2n1)C(=O)N[C@@H](CC(=O)O)C(=O)COc1c(F)cccc1F [PCI/MPP+, Q-VD-OPh] |  |  |  |  |  |  |  |  |  |  |  |  |  |  |  | Cytolysis, Mean ± S.D. ([4]; Table 9.1, plate 1): 65.56 ± 1.89%; Cytolysis, Mean ± S.D. ([4]; Table 9.2, plate 2): 67.93 ± 3.52%; Neurite length, Mean ([5]; Table 7.1, plate 1): 1301.0 mm/mm^2; Neurite Branching, Mean ± S.D. ([5]; Table 7.2, plate 1): 38456.3 ± 11570.7 per mm^2; Neurite length, Mean ± S.D. ([5]; Table 8.1, plate 2): 1430.1 ± 321.7 mm/mm^2; Neurite Branching, Mean ± S.D. ([5]; Table 8.2, plate 2): 52610.1 ± 16660.1 per mm^2
CCOC(=O)C1=CCCC[C@H]1S(=O)(=O)Nc1ccc(F)cc1Cl [TAK-242] | significantly decreased | 5.63 ± 0.00 | <5.63 | <5.63 | <5.63 | significantly decreased | 10.47 ± 0.00 | <10.47 | <10.47 | <10.47 | significantly decreased | 37.76 ± 6.05 | 35.76 | 32.96 | 44.55 | Effect on GROα concentration (in words) ([3]; compared with […] distilled water in presence of LPS and ATP): significantly decreased
